≈ marks a conversion by molar mass, not a printed value. Structures can show the parent of a compound that is named as a salt. Blank lines part the entries; values can stand above or below the molecule they belong to.
Columns and labels:
[1] = in vivo; cited from earlier work
cancer cells = details: cited from earlier work
K-562 = assay: Tumor cell growth inhibition in K-562 cell culture (FIG. 8); type: cell-based; details: K-562 culture fluid; 1/10 (0.4 mg/mL), 1/80 (0.03 mg/mL), 1/320 (0.007 mg/mL); plot FIG. 8
[2] = test system: cancer diseases of several phenotypes; details: cited from earlier work
[3] = test system: cancer cells of representative phenotypes; details: cited from earlier work
[4] = Solubility in 14 mM phosphate buffered saline pH 7.4 at 23° C.; type: physicochemical; details: aqueous buffer, 14 mM PBS pH 7.4, OD at 250 nm of supernatant, read-out: maximum solubility
Experimental: The solubility of the two acetaminophen derivatives (Examples 9 and 10) in 14 mM phosphate buffered saline (PBS) pH 7.4 was determined and compared with the solubility of non-derivatized acetaminophen. It was determined that the two acetaminophen derivatives had much greater solubility than that of the non-derivatized acetaminophen. All work was performed at 23° C.
Method: The solubility of both derivatives was determined by continual addition, with agitation, of the derivatives to a known amount of buffer. When a significant precipitate was observed, the respective solutions were centrifuged and the optical density at 250 nm of the resulting clear supernatant was determined. From the optical density of the supernatant, the concentration was obtained by comparison with non-derivatized acetaminophen standard curves.

- solubility [4]: 60 mg/mL (≈ 136 mM)
Structure (SMILES): CC(=O)Nc1ccc(O[C@@H]2C=C[C@H](O[C@H]3O[C@H](CO)[C@@H](O)[C@H](O)[C@H]3O)[C@@H](CO)O2)cc1 [Example 9, p-Acetoamidophenyl 4-O-(α-D-glucopyranosyl)-2,3-dideoxy-α-D-erythro-hex-2-enopyranoside]

- solubility [4]: 55 mg/mL (≈ 125 mM)
Structure (SMILES): CC(=O)Nc1ccc(O[C@@H]2C=C[C@H](O[C@@H]3O[C@H](CO)[C@H](O)[C@H](O)[C@H]3O)[C@@H](CO)O2)cc1 [Example 10, p-Acetoamidophenyl 4-O-(β-D-galactopyranosyl)-2,3-dideoxy-O-D-erythro-hex-2-enopyranoside]

More lines, now with the values behind:

Structure (SMILES): CC(C)CCC[C@@H](C)[C@H]1CC[C@H]2[C@@H]3[C@@H](OC(=O)CCC(=O)O)C=C4C[C@@H](OC(=O)CCC(=O)O)CC[C@]4(C)[C@H]3CC[C@]12C [7β-OHC bishemisuccinate colamine salt]
- normalizing effects [1]: drive-enhancing (stimulating) activity as well as a tranquilizing activity
- inhibition of proliferative phase growth of cancer cells (cancer cells; clinical studies, low parenteral dosage): selectively inhibit the proliferative phase growth of cancer cells
- side effects (cancer cells; in vivo): without substantial side effects

Structure (SMILES): CC(C)CCC[C@@H](C)[C@H]1CC[C@H]2[C@@H]3[C@@H](O)C=C4C[C@@H](O)CC[C@]4(C)[C@H]3CC[C@]12C [7β-hydroxycholesterol, 5-cholestene-3β,7β-diol]
- tumor cell growth inhibition (K-562): tumor cell growth inhibition
- side effects in treatment of cancer diseases ([2]; in vivo): free of side effects
- treatment of cancer diseases ([2]; several phenotypes): successfully employed
- effect on healthy cells [3]: not affecting healthy cells
- elimination of cancer cells ([3]; substantially non-toxic dosage): effective at substantially non-toxic dosage and capable of eliminating cancer cells of representative phenotypes

Structure (SMILES): CC(=O)Nc1ccc(O)cc1 [acetaminophen, 4-acetamidophenol]
- solubility [4]: 7 mg/mL (≈ 46.3 mM)

— patent US6093805A, “Glycoside compounds and methods of synthesis” (The Regents of the University of Michigan, priority 1997, dated 2000)
